Source: patent US5318985A, “Potentiation of NMDA antagonists” (Merrell Dow Pharmaceuticals Inc., priority 1991, dated 1994)
Counter-ions that a name gives are not always drawn. Like-named read-outs stand apart in the source and are kept apart here.

Columns and labels:
[1] = system: sound induced seizures in DBA/2J audiogenic mice; test: inhibition of sound induced seizures in audiogenic mice (anti-epileptic activity); type: in vivo; conditions: two hours before 110 decibels sound for 30 seconds, 120 min
Text: One method for evaluating the potential anti-epileptic activity of selected compounds is by their ability to inhibit sound induced seizures in audiogenic mice. DBA/2J audiogenic mice experience seizures when exposed to loud noises. Compounds which prevent this phenomenon are considered to be antiepilpetic agents.
Two hours after administration, they were placed individually in glass jars and exposed to a sound stimulus of 110 decibels for 30 seconds. Each mouse was observed during the sound exposure for signs of seizure activity. A graph was prepared based upon the dose administered and the percentage of animals protected at that dose. An ED50 was calculated from the graph. In some mice the test was performed with the only modification being the addition of 100 mg/kg of probenecid IP.
The test was conducted in the following manner.
Five minutes after administration, they were placed individually in glass jars and exposed to a sound stimulus of 110 decibels for 30 seconds. Each mouse was observed during the sound exposure for signs of seizure activity. A graph was prepared based upon the dose administered and the percentage of animals protected at that dose. An ED50 was calculated from the graph. The test was also performed in separate mice with the only modification being the addition of 100 mg/kg or 200 mg/kg of probenecid IP.

[2] = system: quinolinic acid induced clonic seizures in mice; test: inhibition of quinolinic acid (intracerebroventricular) induced clonic seizures in mice; type: in vivo
Procedure: The intracerebroventricular administration of quinolinic acid induces clonic seizures in mice.
In this test, groups of 10 mice were pretreated intravenously with varying doses of R-4-Oxo-5-phosphononorvaline(hereinafter compound) ranging from 1 to 16 mg/kg. Five minutes later the mice were administered 7.7 micrograms of quinolinic acid intracerebroventricularly in a volume of 5 microliters of saline. […] A graph was prepared based upon the dose administered and the percentage of animals protected at that dose. An ED50 was calculated from the graph. The test was then repeated in separate mice with the only modification being the addition of 100 mg/kg of probenecid IP. The following ED50 's were obtained.
The protocol described above was repeated except that the compounds was administered intraperitoneally (dosage ranging from 0.5 to 32 mg/kg) and the pretreatment time was extended to 30 minutes. The following ED50 's were obtained.

[3] = sodium salt; cited from earlier work

3-[(phenacyl)methylamino]-2-carboxy-4,6-dichloroindole
ED50 ([1]; compound alone, i.p. 25 to 400 mg/kg): 183.7 mg/kg
ED50 ([1]; compound i.p. + 100 mg/kg probenecid IP): 45.4 mg/kg

N[C@H](CC(=O)CP(=O)(O)O)C(=O)O [R-4-Oxo-5-phosphononorvaline]
ED50 ([2]; Mus musculus, 5 min, compound alone, intravenous 1 to 16 mg/kg, five minutes before quinolinic acid 7.7 micrograms icv, read-out: ED50): 4 mg/kg
ED50 ([2]; Mus musculus, ip, 0.5 h, compound alone, intraperitoneal 0.5 to 32 mg/kg, 30 minutes pretreatment, read-out: ED50): 16.3 mg/kg
ED50 ([2]; compound intraperitoneal + probenecid (protocol as before: 100 mg/kg IP), 30 minutes pretreatment): 8.0 mg/kg
ED50 ([2]; compound intravenous + 100 mg/kg probenecid IP, five minutes before quinolinic acid 7.7 micrograms icv, 5 min): 2.3 mg/kg

CCCN(CCC)S(=O)(=O)c1ccc(C(=O)O)cc1 [sodium salt of probenecid]
water solubility [3]: readily water soluble
